Columns and labels:
[1] = test system: R-PAT hiPSC-CM EHTs; experiment: Engineered heart tissue (EHT) contractility, R-PAT hiPSC-CMs; format: cell-based, human
Source text: (§1) To generate EHTs, in-house hiPSC lines, R-PAT, and ERC18, were differentiated using 2D-monolayer- (R-PAT) or 3D-embryoid body- (ERC18) protocol and fabricated as recently described ([Breckwoldt et al., 2017]; [Mosqueira et al., 2018]). In brief, casting molds were generated in 24-well plates with 2% agarose (Invitrogen, 15510-019) and Polytetrafluorethylene (PTFE) spacers (EHT Technologies, C0002). PDMS racks (EHT Technologies, C0001) were placed in the 24-well plates so that pairs of PDMS posts reached into each agarose casting mold. A reconstitution mix was prepared consisting of: 1 × 10^6 hiPSC-CM; 81.9 µl cardiomyocyte medium; 10 µl Matrigel basement membrane matrix (BD 354234); 5.5 µl 2 × DMEM; 0.1 µl Y-27632 (10 mM; Biorbyt orb60104); 2.5 µl bovine fibrinogen (5 mg/ml; Sigma F4753). Reconstitution mix (97 µl) was mixed with prealiquoted 3 µl thrombin (100 U/ml; Biopur BP11-10-1104) and pipetted into the agarose casting mold. GCAMP6f-lentiviral particles (multiplicity of infection: 0.3, functional titer) were included in the EHT reconstitution mix for Ca^2+ transient analysis. EHTs started to beat coherently after 10–14 days and were analyzed for contraction and Ca^2+ transient at ≥ 20 days.
(§2) EHTs were transferred from culture medium into preequilibrated (37°C, 40% O2, 7% CO2), modified Tyrode’s solution (in mM, 120 NaCl; 22.6 NaHCO3; 5.4 KCl; 5 glucose; 1 MgCl2; 0.4 NaH2PO4; 0.6–1 CaCl2; 0.05 Na2EDTA; 25 HEPES) for R-PAT and into DMEM (Gibco 21068028; in mM, 110 NaCl; 44 NaHCO3; 5 KCl; 25 glucose; 0.8 MgSO4; 0.9 NaH2PO4, 0.6–1 CaCl2; 25 HEPES, and vitamins and amino acids) for ERC18 EHTs 40 min before analysis to equilibrate to the testing medium. After equilibration, the cumulative concentration response curve was started with baseline recording in preequilibrated medium with Ca^2+ concentration of 0.6–1 mM.
(§3) Contractility analysis was via automated video-optical contractility analysis was performed in 24-well cell culture plates (Nunc, 122475) ([Breckwoldt et al., 2017]). Video files of EHT contractions were analyzed by automated EHT figure recognition software (EHT Technologies, A0001). Top and bottom ends of EHT contour were identified and followed during the course of recording. Force was calculated based on shortening during contraction, elastic propensity, and geometry of PDMS posts.
(§4) Data were normalized to a pool of time-matched controls (contractility analysis, ERC18: n = 22 EHTs/7.0 experiments; R-PAT: 16 EHTs/5.0 experiments; combined contractility- and Ca^2+ transient-analysis: 21 EHTs/8.0 experiments) used for all contractility/combined contractility- and Ca^2+ transient-measurements. Data are plotted as relative change to the mean baseline, normalized to pool time control. Statistical significance was evaluated by GraphPad Software, 1-way ANOVA with Dunnett’s multiple comparisons test versus baseline.

[2] = test system: ERC18 hiPSC-CM EHTs; experiment: Engineered heart tissue (EHT) contractility, ERC18 hiPSC-CMs; format: cell-based, human; details: for changes in CA on the EHT platform: one range given for three NE drugs incorrectly predicted as PIs, EHT: ERC18 per Table 1
Source text: as §1, §2, §3, §4

[3] = test system: R-PAT hiPSC-CMs; experiment: CellOPTIQ (CO) contractility, R-PAT hiPSC-CM 2D monolayers; format: cell-based, human; details: mean maximum measurable percentage change relative to baseline, at concentration of column Conc μM or cell superscript
Procedure: Manufacturer instructions were followed for the commercial hiPSC lines. […] The same plates were used for R-PAT hiPSC-CMs, which were seeded at 40 000 cells/well and maintained until days 20 and 21 of differentiation before use.
hiPSC-CMs in 96-well plate were transiently loaded in 50 µl/well of SFM containing FluoVolt (1:200 part B, 1:2000 part A; Life Tech, F10488) for 20 min at 37°C and 5% CO2. After incubation, the medium was replaced with 200 μl/well of SFM. Plates were then incubated at 37°C and 5% CO2 for 15 min before recording, which were made using a ×40 (NAO.6) objective at 10 KHz. […] Baselines and drug addition were as described for the TTM system. Electrophysiology data were analyzed using CellOPTIQ proprietary software of Clyde Biosciences and were normalized to a maximum amplitude of 1 and minimum of 0 to standardize height for comparison of traces created in OriginPro (OriginLab version 7.5). Contractility data were analyzed based on pixel displacement using an ImageJ plug-in. This plug-in uses a sum of absolute differences algorithm.

[4] = cited from earlier work; for FTPC: free therapeutic plasma concentration, Refs of Supplementary Table 1; for FPTC (free plasma therapeutic concentration): ref Supplementary Table 1
[5] = test system: heart; parameters: method as in Refs column of Supplementary Table 1; details: Refs of Supplementary Table 1; cited from earlier work
[6] = test system: cardiac contractility; details: cited from earlier work; for EC50: read-out: Expected effect on contractility in isolated cardiomyocytes/heart muscles, EC50
[7] = test system: hiPSC-CM EHTs; experiment: EHT contractility with beat rate slowed by 300 nM ivabradine and electrical pacing 0.5-2.0 Hz; format: cell-based, human; details: EHTs with 300 nM ivabradine, paced; only at 0.5 and 0.7 Hz, sometimes at 1 Hz, never at 1.5 or 2 Hz; high concentration bolus
Procedure: We extended these studies to the 3D EHT platform, this time slowing spontaneous beating to < 0.5 Hz with 300 nM ivabradine, a pharmacological blocker of the “funny” If current ([Bois et al., 1996]). […] Whereas force-frequency relationships was negative above 1.5 Hz, it was positive between 0.5 and 1.5 Hz, evidenced by a 147% increase in force generation concurrent with significant shortening of CT and RT (Supplementary Figure 6). We therefore re-evaluated 6 of the PIs in the presence of 300 nM ivabradine with electrical pacing at 0.5, 0.7, 1.0, 1.5, and 2.0 Hz. These also included epinephrine, levosimendan, and pimobendan, which had been incorrectly predicted by EHT:R-PAT and/or EHT:ERC platform-cell combinations. […] Thus, in both 2D and 3D configurations, lower beating frequencies led to increased predictivity for PIs.
Figure 5. Slowed beat rate increases the predictivity of positive inotropes (PIs) in 3D engineered heart tissues (EHTs). Contraction analysis was carried out using EHTs with 6 of the PIs from the drug test set: epinephrine (Epi), forskolin (For), levosimendan (Lev), pimobendan (Pim), dobutamine (Dob), and milrinone (Mil) which had been predicted with variable accuracy (Figure 4A, web tool). […] Scatter plots show percentage changes relative to baseline at respective frequency. Averaged peaks for force are shown for baseline (BL, black peaks) versus after treatment in EHTs paced at 0.5 Hz (blue peaks) or 2.0 Hz (red peaks). Dunnett’s stats versus baseline at respective frequency: *p < .05; **p < .01; ***p < .001; ****p < .0001.
Supplementary Figure 6. Positive force frequency relationship in EHTs paced between 0.5 and 1.5 Hz. Spontaneous beat rate of EHTs was reduced by 3 hour pre-treatment with 300 nM ivabradine, an If current inhibitor. […] CA increased from 0.5 to 1.5 Hz but plateaued and declined at higher frequencies. These changes were reflected in the CT and RT data. Dunnett's stats vs vehicle control: *, P<0.05; **, P<0.01; ***, P<0.001; ****, P<0.0001.

[8] = test system: hiPSC-CMs; experiment: Training set contractility in hiPSC-CMs on TTM, CellOPTIQ and EHT platforms; format: cell-based, human; details: for inotropy (CA) response: trend or significant response, Supplementary Figure 3
Procedure: The training set of 8 drugs was used to test and refine protocols. […] For each parameter, the percentage change in drug-treated samples relative to their respective vehicle control was calculated using the formula ([drug/drug baseline]/[vehicle/vehicle baseline])*100–100. […] These studies allowed unification of SOPs, although physical and technical constraints between the platforms meant that some unavoidable differences remained (Supplementary Table 2).
Supplementary Figure 3: Training sets to unify drug testing procedures. […] The percentage change in drug treated samples is relative to their respective vehicle control. Unpaired T-test. * p<0.05; ** p<0.01; *** p<0.001; **** p<0.0001.

[9] = EHT: R-PAT, mean maximum measurable percentage change relative to baseline, at concentration of column Conc μM or cell superscript
[10] = EHT: ERC18, mean maximum measurable percentage change relative to baseline, at concentration of column Conc μM or cell superscript
[11] = isolated cardiomyocytes/heart muscles, Refs of Supplementary Table 1

Row | Compound | FTPC [4] [µM] | FPTC (free plasma therapeutic concentration) [4] [µM] | Expected cardiac effects in vivo [5] | Expected effect on contractility in isolated cardiomyocytes/heart muscles [6, 11] | EC50 [6, 11] [µM] | inotropy (CA) response [8] | other results
1 | C[C@H](N[C@@H](CCc1ccccc1)C(=O)O)C(=O)N1CCC[C@H]1C(=O)O [Enalaprilat] | 0.12 | 0.12 | None | None | – | – | CA (contraction amplitude) [1, 9]: +33%; CT (contraction time) [1, 9]: +5 ^1 µM %; RT (relaxation time) [1, 9]: −14%; changes in CA on the EHT platform ([1]; one range given for three NE drugs incorrectly predicted as PIs, EHT: R-PAT per Table 1): 19%–33; CA (contraction amplitude) [2, 10]: +2 ^10 µM %; CT (contraction time) [2, 10]: −3%; RT (relaxation time) [2, 10]: −4%; CA (contraction amplitude) [3]: +54%; CT (contraction time) [3]: +20 ^10 µM %; RT (relaxation time) [3]: +34%; inotropic effect via bradykinin B1 receptor activation ([6]; ACE inhibitors, ref Ignjatovic et al., 2002): positive inotropic effect
2 | CNC[C@H](O)c1ccc(O)c(O)c1 [Epinephrine] | 0.0002 to 0.050 | 0.0002 to 0.05 | PI, PC | – | 0.1 | – | CA response [7]: increased contraction amplitude
3 | COC(=O)N1CCN(Cc2cccc(NC(=O)Nc3ccc(C)nc3)c2F)CC1 [Omecamtiv mecarbil] | 0.05 to 0.42 | – | PI, prolonged syst. ejection time, small decrease in heart rate | PI, NCl, NL, diastolic shortening (dog myocytes) | 1 | – | increased CT ([1]; hiPSC-CMs configured as 3D EHTs, blinded phase, without convincing evidence for increased CA): approximately +40%
4 | COc1ccc(-c2nc3ccc(C4=NNC(=O)CC4C)cc3[nH]2)cc1 (stereo not drawn) [Pimobendan] | 0.005 to 0.01 | 0.005 to 0.01 | PI, small PC | – | 34 | – | CA response [7]: increased contraction amplitude
5 | CC[C@H](C)C(=O)O[C@H]1C[C@H](O)C=C2C=C[C@H](C)[C@H](CC[C@@H](O)C[C@@H](O)CC(=O)O)[C@H]21 [Pravastatin] | 0.018 | 0.018 | None | None | – | – | changes in CA on the EHT platform [2]: 19%–33
6 | CCCCNC(=O)NS(=O)(=O)c1ccc(C)cc1 [Tolbutamide] | – | – | None or PI (dogs, men) | None (canine CM) or small PI (rabbit atria, rat heart) | ~30 | – | changes in CA on the EHT platform [2]: 19%–33
7 | C[C@H]1O[C@@H](O[C@H]2[C@@H](O)C[C@H](O[C@H]3[C@@H](O)C[C@H](O[C@H]4CC[C@@]5(C)[C@H](CC[C@@H]6[C@@H]5C[C@@H](O)[C@]5(C)[C@@H](C7=CC(=O)OC7)CC[C@]65O)C4)O[C@@H]3C)O[C@@H]2C)C[C@H](O)[C@@H]1O [digoxin] | – | – | PI, arrhythmias | PI+ PL (< 1 µM, slowly developing, t1/2 conc.-dependent) NI + diast. shortening (>1 µM) | – | positive inotropy | RT response ([8]; 2D configuration): tended to increase RT
8 | CC(C)NCC(O)c1ccc(O)c(O)c1 (stereo not drawn) [isoprenaline] | 0.0095 | – | PI, PC | – | 0.01 | positive inotropy | CT and RT response ([8]; 3D EHTs): decreased of both CT and RT
9 | COC(=O)C1=C(C)NC(C)=C(C(=O)OC)C1c1ccccc1[N+](=O)[O-] [nifedipine] | – | – | Small NI (direct) overridden by adrenergic activation, PC (indirect) | – | – | negative inotropy | IC50 ([6]; negative inotropy, isolated cardiomyocytes/heart muscles, Refs of Supplementary Table 1, read-out: Expected effect on contractility in isolated cardiomyocytes/heart muscles, IC50): 0.1 µM
